Converted amounts (≈) assume the structure as drawn.
What was measured:
[1] = Water solubility (table of physicochemical properties)
[2] = tested on: bacterial isoleucyl-tRNA synthetases; settings: cited from earlier work
[3] = Nail penetration, 14-day dosing of radiolabeled compound (Hui protocol); type: in vitro ADME; settings: washing, nail samples and supporting bed cotton ball samples; 14-day treatment
Experimental: Two nail penetration studies were performed based on the protocol in Hui et al., Journal of Pharmaceutical Sciences, 91(1): 189-195 (2002) (“Hui protocol”). The purpose of this study was to determine and compare the penetration and distribution of C10 in vehicle into the human nail plate in vitro relative to 8% ciclopirox w/w in commercial lacquer (Penlac®).
The study was composed of two groups. The compositions (weight %) of the dosage formulations are as follows: […]
Healthy human finger nail plates were collected from adult human cadavers and stored in a closed container at 0-4° C. Before the experiment, the nail plates were gently washed with normal saline to remove any contamination, then re-hydrated by placing them for three hours on a cloth wetted with normal saline. The nail samples were randomly selected into four groups.
Radioactivity of each group is approximately 0.19±0.01 and 0.22±0.03 μCi/10 μL solutions respectively, for ^14C—C10 (group A), and ^14C-ciclopirox (group C).
Surface washing was started in morning 10 min prior to next dosing, the surface of the nail was washed with cotton tips in a cycle, as follows:
A Teflon one-chamber diffusion cell (PermeGear, Inc., Hellertown, Pa.) was used to hold each nail. To approximate physiological conditions, a small cotton ball wetted with 0.1 mL normal saline was placed in the chamber to serve as a nail bed and provide moisture for the nail plate. Every 3 days, 0.1 mL normal saline was injected through the inlet into the chamber to keep the cotton ball wet. The nail plate was placed on a ledge inside the receptor (1.0 cm in diameter and 0.5 cm high). The ventral (inner) surface of the nail was placed face down and rested on the wet cotton ball. The cells were placed on a platform in a large glass holding tank filled with saturated sodium phosphate solution to keep the cells at a constant humidity of 40%.
After completion of the incubation phase, the nail plate was transferred from the diffusion cell to a clean copper nail holder for sampling process. The nail plate was inverted so that the ventral (nail bed) surface now faced up and the dorsal (outer) dosed surfaced faced down. The copper nail holder has an opening as it sits on top of the stage. When the sampling process initiated, the coarse adjustment was adjusted to move the position of the stage until the nail plate was just touching the tip of the cutter. Then the drill was turned on and the fine adjustment was turned to push the stage closer to the drill, removing a nail core sample. After the above process, approximate 0.40-0.50 mm in depth and 7.9 mm in diameter nail pulverized samples were harvested from the center of the ventral (nail bed) surface of the nail.
The powdered nail samples were collected into a glass scintillation vial and weighted. Aliquots of 5.0 mL Packard soluene-350 (Packard Instrument Company, Meriden, Conn.) was added to the scintillation vial to dissolve the powder. The upper part, the intermediate and dorsal layers of the center of the nail, including the area of application of the dose was cut in the same diameter as the sampled area and was then placed into a glass scintillation vial with 5.0 mL packard soluene-350. The rest of the nail was also placed in a glass scintillation vial with 5.0 mL packard soluene-350.
All radioactivity measurements were conducted with a Model 1500 Liquid Scintillation Counter (Packard Instrument Company, Downer Grove, Ill.). The counter was audited for accuracy using sealed samples of quenched and unquenched standards as detailed by the instrument manual. The ^14C counting efficiency is equal to or greater than 95%. All nail samples pre-treated with packard soluene-350 were incubated at 40° C. for 48 hours followed by the addition of 10 mL scintillation cocktail (HIONIC-FLUOR, Packard Instrument Company, Meriden, Conn.). […]

[4] = type: in vitro ADME, human
Experimental: C10, 5-fluoro-1,3-dihydro-1-phenyl-2,1-benzoxaborole, C1, and 5-fluoro-1,3-dihydro-1-(3-hydroxymethylphenyl)-2,1-benzoxaborole, formulated at 10% w/v in ethanol, were tested. A single aliquot (10 μl) of each formulation was dosed to the top of human nail plates using the nail penetration procedure described below, and allowed to stand for 3-days. The dosed area was washed, and then the cotton ball bed supporting the nail and the nail samples were collected at the end of the incubation period, stored at 4° C. and analyzed for drug using LC/MS/MS.
Details of the nail incubation have been previously described^9, 10. […] The supporting cotton ball under the nail was wetted by normal saline providing moisture for the nail plate, and the degree of hydration was monitored and controlled during the experiment. […]
LC/MS/MS (API3000, Applied Biosystems, Foster City, Calif.) was used to quantitate the amounts of non-radiolabeled oxaboroles, C10, 5-fluoro-1,3-dihydro-1-phenyl-2,1-benzoxaborole, C1, and 5-fluoro-1,3-dihydro-1-(3-hydroxymethylphenyl)-2,1-benzoxaborole in samples from the nail penetration studies. […] After centrifugation, the filtrate from the cotton ball samples was transferred to autosampler vials and analyzed by LC/MS/MS. […]

[5] = tested on: Saccharomyces cerevisiae strain ATCC 201388; test: MIC (NCCLS M27, YPD or synthetic defined media), haploid parental strain; type: cell-based; settings: Saccharomyces cerevisiae, ATCC201388, Table 2; ATCC201388; read-out: MIC
Experimental: (§1) The haploid Saccharomyces cerevisiae strain ATCC 201388 was used in the selection of C10 resistant mutants. Spontaneous and EMS-induced resistant mutants were isolated from YPD agar plates containing 4×, 8×, 16×MIC of C10. All minimal inhibitory concentrations (MIC) were determined using NCCLS protocol M27 with the exception of using YPD or synthetic defined media. All yeast and molecular genetic manipulations were essentially performed as described by Guthrie C., et al., Methods in Enzymology, 350: Part B, (2002).
(§2) The minimal inhibitory concentration (MIC) was essentially performed following the NCCLS guidelines outlined in the M27 protocol with the exception of using YPD or synthetic defined media (SDM).

[6] = tested on: S. cerevisiae C10 resistant mutants (CDC60 editing domain mutations); test: MIC (NCCLS M27), spontaneous and EMS induced C10 resistant mutants; type: cell-based, Saccharomyces cerevisiae; settings: for MIC: Saccharomyces cerevisiae, Table 2
Experimental: as §1
Resistant mutants appeared after 2 d incubation at 30° C. Frequency of resistance was determined by dividing the number of resistant mutants by the total number of cells plated as determined by plating dilutions of the overnight culture on YPD plates.
A 2.5 mL of the overnight culture, which was grown in YPD media, was centrifuged at 700×g for 5 minutes. The cell pellet was resuspended in 10 mL 50 mM potassium phosphate buffer, pH 7.0. The cell suspension was centrifuged again and the cell pellet was resuspended in phosphate buffer to obtain a cell density of 5×10^7 cells/mL as determined by counting the cells using a Petroff Hausser Counting Chamber (Horsham, Pa. USA). The cell suspension was shaken with 300 μL of EMS (Alfa Aesar, Ward Hill, Mass., USA) for 30 min. at 30° C. The mutagenesis was stopped by adding 10% (w/v) sodium thiosulfate (Sigma-Aldrich, St. Louis, Mo., USA), and the cells were pelleted by centrifugation at 700×g for 5 min. and resuspended in 1 mL sterile H2O. This was repeated once more before the cells were plated on YPD agar plates containing 1.6 μg/mL of C10.
as §2

OB1OCc2cc(Cl)ccc21 [C1, 5-chlorobenzo[c][1,2]oxaborol-1(3H)-ol]
solubility [1]: > 100 µg/mL

C/C(=C\C(=O)OCCCCCCCCC(=O)O)C[C@@H]1OC[C@H](C[C@@H]2O[C@H]2[C@@H](C)[C@H](C)O)[C@@H](O)[C@H]1O [Mupirocin, mupirocin]
activity against the human homolog versus bacterial isoleucyl-tRNA synthetases (times less active) [2]: more than 1,000 times

Cc1cc(C2CCCCC2)n(O)c(=O)c1 [ciclopirox]
Cumulative radioactivity recoveries of carbon-14 [3]: 89±1.56% of applied dose | penetration of the nail plate, in words [4]: penetrates the nail plate poorly | MIC [5]: 0.5 µg/mL (≈ 2.41 µM) | resistance of C10 resistant mutants to other antifungals, in words [6]: not resistant | MIC ([6]; C10 resistant mutant (C)): 0.5 µg/mL (≈ 2.41 µM) | MIC ([6]; C10 resistant mutant (G)): 0.5 µg/mL (≈ 2.41 µM) | MIC ([6]; C10 resistant mutant (H)): 0.5 µg/mL (≈ 2.41 µM)

— patent US9566290B2, “Boron-containing small molecules” (Anacor Pharmaceuticals, Inc., priority 2005, dated 2017)
